Measurements taken from ChEMBL document CHEMBL5465560, “Selectivity Literature for EUbOPEN Chemogenomic Library” (2024).

How the values were obtained:
[1] = molecular target: Tyrosine-protein kinase Yes (Homo sapiens) (UniProt P07947); assay: Selectivity interaction (KinomeScan (DiscoverX)) EUB0001049a YES1; conditions: at 1 µM
[2] = molecular target: T1, Dual specificity protein kinase TTK (Homo sapiens) (UniProt P33981); assay: Selectivity interaction (KinomeScan (DiscoverX)) EUB0000666a TTK; conditions: at 10 µM
T1 sequence (whole entry): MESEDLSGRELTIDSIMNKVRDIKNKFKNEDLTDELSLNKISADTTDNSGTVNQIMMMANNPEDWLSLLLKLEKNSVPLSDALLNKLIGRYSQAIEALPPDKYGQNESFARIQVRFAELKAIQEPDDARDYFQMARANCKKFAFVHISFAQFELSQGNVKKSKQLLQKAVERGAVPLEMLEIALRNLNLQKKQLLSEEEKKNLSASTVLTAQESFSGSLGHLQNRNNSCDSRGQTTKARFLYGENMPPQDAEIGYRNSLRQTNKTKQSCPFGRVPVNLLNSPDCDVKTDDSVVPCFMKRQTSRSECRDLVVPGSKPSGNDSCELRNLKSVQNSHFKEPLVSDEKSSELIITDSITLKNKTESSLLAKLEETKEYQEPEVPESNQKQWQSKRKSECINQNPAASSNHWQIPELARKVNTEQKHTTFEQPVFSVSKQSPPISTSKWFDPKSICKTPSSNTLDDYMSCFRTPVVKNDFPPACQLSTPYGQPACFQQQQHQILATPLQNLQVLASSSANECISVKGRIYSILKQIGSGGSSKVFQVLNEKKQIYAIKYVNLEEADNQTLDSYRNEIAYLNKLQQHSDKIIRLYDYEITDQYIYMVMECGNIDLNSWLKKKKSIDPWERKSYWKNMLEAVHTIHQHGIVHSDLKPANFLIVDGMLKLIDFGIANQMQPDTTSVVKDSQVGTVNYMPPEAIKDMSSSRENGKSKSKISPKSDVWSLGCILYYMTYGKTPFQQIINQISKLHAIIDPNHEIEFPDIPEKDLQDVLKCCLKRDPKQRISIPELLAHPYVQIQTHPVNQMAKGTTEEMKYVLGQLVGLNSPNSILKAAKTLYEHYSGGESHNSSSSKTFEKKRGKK

[3] = molecular target: STE20-like serine/threonine-protein kinase (Homo sapiens, UniProt Q9H2G2); assay: Selectivity interaction (KinomeScan (DiscoverX)) EUB0000092b SLK; conditions: at 10 µM
STE20-like serine/threonine-protein kinase, sequence (Q9H2G2 whole entry, looked up): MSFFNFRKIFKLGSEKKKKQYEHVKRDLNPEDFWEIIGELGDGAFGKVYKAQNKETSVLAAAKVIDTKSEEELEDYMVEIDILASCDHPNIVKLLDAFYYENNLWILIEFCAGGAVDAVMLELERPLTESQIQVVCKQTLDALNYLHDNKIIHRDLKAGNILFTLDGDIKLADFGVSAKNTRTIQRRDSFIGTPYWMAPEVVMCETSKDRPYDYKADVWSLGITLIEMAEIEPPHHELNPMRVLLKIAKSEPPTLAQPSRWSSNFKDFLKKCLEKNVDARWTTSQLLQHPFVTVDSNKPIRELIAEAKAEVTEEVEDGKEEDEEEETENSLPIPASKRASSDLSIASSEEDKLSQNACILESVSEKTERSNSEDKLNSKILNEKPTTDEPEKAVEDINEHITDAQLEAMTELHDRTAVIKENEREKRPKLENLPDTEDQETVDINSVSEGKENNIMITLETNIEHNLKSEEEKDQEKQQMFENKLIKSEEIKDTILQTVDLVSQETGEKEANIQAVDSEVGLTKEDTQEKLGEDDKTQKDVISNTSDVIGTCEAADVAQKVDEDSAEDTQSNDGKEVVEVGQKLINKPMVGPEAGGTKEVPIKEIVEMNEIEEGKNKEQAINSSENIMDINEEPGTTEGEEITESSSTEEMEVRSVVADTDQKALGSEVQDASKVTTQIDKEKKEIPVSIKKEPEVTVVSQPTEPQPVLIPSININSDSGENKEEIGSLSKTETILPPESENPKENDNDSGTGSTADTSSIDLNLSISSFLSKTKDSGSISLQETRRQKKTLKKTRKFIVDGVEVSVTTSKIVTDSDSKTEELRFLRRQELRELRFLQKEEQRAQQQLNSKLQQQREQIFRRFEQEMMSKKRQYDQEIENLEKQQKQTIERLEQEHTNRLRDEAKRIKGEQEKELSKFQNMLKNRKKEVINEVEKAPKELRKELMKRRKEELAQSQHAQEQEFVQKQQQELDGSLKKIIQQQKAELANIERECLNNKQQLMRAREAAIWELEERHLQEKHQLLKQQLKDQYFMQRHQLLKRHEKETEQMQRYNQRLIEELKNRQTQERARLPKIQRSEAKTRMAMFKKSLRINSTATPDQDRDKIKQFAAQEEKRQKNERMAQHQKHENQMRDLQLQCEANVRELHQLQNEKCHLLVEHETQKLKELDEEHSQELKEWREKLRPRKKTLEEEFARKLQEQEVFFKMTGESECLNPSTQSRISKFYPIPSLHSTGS

[4] = molecular target: Tyrosine-protein kinase CSK (Homo sapiens) (UniProt P41240); assay: Selectivity interaction (Kinase screening (Upstate/Millipore)) EUB0000604a CSK
Tyrosine-protein kinase CSK (Homo sapiens), sequence (P41240 2-450 limits assumed): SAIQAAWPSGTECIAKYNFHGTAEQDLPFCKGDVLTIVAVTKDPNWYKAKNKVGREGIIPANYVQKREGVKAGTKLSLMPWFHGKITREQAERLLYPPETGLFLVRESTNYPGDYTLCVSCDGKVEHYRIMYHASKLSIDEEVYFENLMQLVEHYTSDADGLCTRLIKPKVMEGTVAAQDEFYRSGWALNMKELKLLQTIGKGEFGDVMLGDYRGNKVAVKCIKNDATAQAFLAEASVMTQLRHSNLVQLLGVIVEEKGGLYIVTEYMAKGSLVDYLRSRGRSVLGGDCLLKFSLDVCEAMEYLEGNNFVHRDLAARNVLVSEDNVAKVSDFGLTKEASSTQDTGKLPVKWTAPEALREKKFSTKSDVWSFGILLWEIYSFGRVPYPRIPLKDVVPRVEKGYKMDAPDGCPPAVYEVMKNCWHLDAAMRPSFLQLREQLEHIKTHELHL

[5] = molecular target: Tyrosine-protein kinase SYK (Homo sapiens, UniProt P43405); assay: Selectivity interaction (Ambit KINOMEscan and KiNATiv profiling in Jurkat cells) EUB0000090b SYK; format: cell-based; conditions: at 1 µM
[6] = molecular target: Cyclin-dependent kinase 7 (Homo sapiens, UniProt P50613); assay: Selectivity interaction (Ambit KINOMEscan and KiNATiv profiling in Jurkat cells) EUB0000090b CDK7; format: cell-based; conditions: at 1 µM
Cyclin-dependent kinase 7, sequence (P50613 whole entry): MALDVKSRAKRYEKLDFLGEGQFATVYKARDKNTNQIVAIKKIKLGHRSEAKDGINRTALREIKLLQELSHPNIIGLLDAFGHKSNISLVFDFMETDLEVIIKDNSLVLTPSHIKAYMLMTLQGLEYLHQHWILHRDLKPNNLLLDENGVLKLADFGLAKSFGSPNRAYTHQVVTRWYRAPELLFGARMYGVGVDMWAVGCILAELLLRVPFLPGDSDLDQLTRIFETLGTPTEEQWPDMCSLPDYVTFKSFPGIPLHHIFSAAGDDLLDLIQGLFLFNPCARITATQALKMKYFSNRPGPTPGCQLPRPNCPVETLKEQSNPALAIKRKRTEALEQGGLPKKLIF

[7] = molecular target: Serine/threonine-protein kinase 38 (Homo sapiens) (UniProt Q15208); conditions: at 10 µM
Serine/threonine-protein kinase 38 (Homo sapiens), sequence (Q15208 2-465 limits assumed): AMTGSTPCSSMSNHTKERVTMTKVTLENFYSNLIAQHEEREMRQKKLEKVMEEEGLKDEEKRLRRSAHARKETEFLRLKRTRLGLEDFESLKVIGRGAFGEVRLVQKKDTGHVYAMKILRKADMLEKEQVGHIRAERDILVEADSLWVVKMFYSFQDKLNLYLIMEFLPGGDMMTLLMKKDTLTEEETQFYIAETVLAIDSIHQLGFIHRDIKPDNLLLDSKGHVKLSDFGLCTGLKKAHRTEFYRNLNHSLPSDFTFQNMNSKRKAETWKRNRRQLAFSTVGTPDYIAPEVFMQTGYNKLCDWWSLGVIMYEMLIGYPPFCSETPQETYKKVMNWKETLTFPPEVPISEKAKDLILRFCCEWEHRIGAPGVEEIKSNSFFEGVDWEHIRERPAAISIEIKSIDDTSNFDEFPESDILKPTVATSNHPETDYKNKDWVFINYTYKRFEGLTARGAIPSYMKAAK

[8] = molecular target: Tyrosine-protein kinase Lck (Homo sapiens, UniProt P06239); conditions: at 10 µM
Tyrosine-protein kinase Lck, sequence (P06239 2-509 limits assumed): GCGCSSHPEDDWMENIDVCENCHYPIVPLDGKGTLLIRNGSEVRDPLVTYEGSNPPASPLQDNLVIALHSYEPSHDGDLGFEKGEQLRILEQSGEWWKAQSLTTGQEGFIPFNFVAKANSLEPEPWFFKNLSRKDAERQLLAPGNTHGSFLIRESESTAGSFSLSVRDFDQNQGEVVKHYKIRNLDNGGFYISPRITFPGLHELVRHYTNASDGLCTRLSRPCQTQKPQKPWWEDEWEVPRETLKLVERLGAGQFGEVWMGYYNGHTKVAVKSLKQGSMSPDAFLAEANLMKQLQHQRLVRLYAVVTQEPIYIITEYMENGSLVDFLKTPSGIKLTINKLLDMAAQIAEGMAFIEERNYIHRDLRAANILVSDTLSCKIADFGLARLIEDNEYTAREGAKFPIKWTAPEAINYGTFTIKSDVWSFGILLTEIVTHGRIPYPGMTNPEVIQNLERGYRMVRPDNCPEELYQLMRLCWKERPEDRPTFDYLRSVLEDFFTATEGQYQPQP

[9] = molecular target: Calcium/calmodulin-dependent protein kinase type II subunit delta (Homo sapiens) (UniProt Q13557); conditions: at 10 µM
Calcium/calmodulin-dependent protein kinase type II subunit delta (Homo sapiens), sequence (Q13557 whole entry, the tested form may be a part): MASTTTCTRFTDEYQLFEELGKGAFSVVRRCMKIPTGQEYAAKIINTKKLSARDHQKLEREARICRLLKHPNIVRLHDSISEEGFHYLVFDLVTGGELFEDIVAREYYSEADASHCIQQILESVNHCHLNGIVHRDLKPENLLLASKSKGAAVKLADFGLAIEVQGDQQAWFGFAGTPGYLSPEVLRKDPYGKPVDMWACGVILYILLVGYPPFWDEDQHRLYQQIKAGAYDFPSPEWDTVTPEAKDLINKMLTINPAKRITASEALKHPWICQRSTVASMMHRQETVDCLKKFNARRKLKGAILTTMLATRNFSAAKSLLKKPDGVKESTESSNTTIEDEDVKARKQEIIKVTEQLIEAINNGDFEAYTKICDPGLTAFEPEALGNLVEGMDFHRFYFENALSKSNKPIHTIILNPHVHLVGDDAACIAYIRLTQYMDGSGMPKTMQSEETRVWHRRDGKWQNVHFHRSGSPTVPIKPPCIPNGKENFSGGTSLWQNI

[10] = molecular target: T2, Ankyrin repeat and protein kinase domain-containing protein 1 (Homo sapiens) (UniProt Q8NFD2); assay: Selectivity interaction (KinomeScan (DiscoverX)) EUB0000655a ANKK1; conditions: at 10 µM
T2 sequence (whole entry): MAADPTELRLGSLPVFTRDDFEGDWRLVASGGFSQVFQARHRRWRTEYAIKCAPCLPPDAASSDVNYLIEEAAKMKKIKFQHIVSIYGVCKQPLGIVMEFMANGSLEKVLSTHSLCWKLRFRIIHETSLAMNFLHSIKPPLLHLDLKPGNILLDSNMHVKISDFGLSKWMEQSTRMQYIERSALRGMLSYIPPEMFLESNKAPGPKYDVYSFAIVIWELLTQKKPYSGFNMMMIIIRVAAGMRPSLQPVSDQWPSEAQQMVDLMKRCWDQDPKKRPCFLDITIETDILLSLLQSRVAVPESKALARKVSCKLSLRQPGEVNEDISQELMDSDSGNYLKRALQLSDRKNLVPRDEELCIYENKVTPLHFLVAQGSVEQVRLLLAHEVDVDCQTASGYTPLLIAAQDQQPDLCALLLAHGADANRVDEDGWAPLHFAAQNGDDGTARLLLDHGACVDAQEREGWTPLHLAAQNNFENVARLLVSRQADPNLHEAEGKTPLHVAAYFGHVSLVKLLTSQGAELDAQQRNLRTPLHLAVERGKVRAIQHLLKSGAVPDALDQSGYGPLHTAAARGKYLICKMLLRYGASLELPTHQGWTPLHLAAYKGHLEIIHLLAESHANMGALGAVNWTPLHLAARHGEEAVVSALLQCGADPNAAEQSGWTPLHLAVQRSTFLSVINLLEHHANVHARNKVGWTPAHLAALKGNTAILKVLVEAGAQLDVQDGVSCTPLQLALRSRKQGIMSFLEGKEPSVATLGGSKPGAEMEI

[11] = molecular target: T3, Dual specificity tyrosine-phosphorylation-regulated kinase 3 (Homo sapiens) (UniProt O43781); assay: Selectivity interaction (SelectScreen profiling (Invitrogen)) EUB0000607a DYRK3; conditions: at 2 µM
T3 sequence (whole entry): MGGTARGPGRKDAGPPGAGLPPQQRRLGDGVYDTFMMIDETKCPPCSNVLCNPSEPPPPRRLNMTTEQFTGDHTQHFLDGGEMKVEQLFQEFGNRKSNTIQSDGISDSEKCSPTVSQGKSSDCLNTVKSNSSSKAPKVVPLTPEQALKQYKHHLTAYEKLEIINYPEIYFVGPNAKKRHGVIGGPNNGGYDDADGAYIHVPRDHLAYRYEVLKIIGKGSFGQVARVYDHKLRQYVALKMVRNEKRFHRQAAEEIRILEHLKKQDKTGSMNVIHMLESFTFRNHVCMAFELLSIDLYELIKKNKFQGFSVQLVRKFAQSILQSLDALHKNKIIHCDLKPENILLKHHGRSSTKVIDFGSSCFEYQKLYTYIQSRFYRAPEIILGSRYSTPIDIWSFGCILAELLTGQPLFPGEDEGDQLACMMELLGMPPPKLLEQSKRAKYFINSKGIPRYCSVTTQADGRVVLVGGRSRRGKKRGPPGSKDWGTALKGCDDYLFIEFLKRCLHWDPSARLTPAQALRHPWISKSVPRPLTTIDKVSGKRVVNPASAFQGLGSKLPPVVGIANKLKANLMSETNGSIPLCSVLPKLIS

Tyrosine-protein kinase Yes (Homo sapiens), sequence (P07947 2-543 limits assumed): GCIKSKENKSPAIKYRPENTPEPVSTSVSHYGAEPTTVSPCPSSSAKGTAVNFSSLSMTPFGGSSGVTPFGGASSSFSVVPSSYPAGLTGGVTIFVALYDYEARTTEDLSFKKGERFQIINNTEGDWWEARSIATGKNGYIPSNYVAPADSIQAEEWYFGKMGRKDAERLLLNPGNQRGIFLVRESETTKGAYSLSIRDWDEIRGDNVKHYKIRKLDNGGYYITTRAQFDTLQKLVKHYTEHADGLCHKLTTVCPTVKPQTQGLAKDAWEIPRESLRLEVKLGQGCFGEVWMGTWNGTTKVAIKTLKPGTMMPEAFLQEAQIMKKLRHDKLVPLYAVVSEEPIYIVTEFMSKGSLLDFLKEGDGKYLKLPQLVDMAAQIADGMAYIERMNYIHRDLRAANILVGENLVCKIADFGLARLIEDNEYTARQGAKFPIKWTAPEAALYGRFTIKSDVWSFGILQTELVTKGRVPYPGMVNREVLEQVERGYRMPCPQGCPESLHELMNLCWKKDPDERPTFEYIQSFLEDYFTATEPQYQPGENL

Compound `COc1cc(Nc2nc(C)cc(-c3cnn4nc(OC)ccc34)n2)cc(C(F)(F)F)c1` has a % of control [1] of 80%.

In the case of `O=C(NOC[C@H](O)CO)c1ccc(F)c(F)c1Nc1ccc(I)cc1F`, the % of control [2] is reported as 100%.

For `CCC(=O)N1CCN(c2ccc(-n3c(=O)ccc4cnc5ccc(-c6cnc7ccccc7c6)cc5c43)cc2C(F)(F)F)CC1`, the % of control [3] was 94%.

For `Cc1cnc(Nc2ccc(F)cc2Cl)nc1-c1c[nH]c(C(=O)N[C@H](CO)c2cccc(Cl)c2)c1`, the % of inhibition [4] was 0%.

`CN(C)C/C=C/C(=O)Nc1ccc(C(=O)N2CCCC(Nc3ncc(Cl)c(-c4c[nH]c5ccccc45)n3)C2)cc1` (stereo unspecified) gave a % of control [5] of 86% and a % of control [6] of 28%.

Compound `Cc1cc([C@@H](C)Nc2ccccc2C(=O)O)c2nc(N3CCOCC3)cc(=O)n2c1` [AZD-6482] has a % of control [7] of 100%, a % of control [8] of 97% and a % of control [9] of 95%.

In the case of `CN(C)CCOc1ccc(-c2nc(-c3ccncc3)c(-c3ccc4c(c3)CC/C4=N\O)[nH]2)cc1`, the % of control [10] is reported as 100%.

With `CNC(=O)Nc1ccc(-c2nc(N3CC4CCC(C3)O4)c3cnn(C4CCC5(CC4)OCCO5)c3n2)cc1` the % of inhibition [11] was -1%.
